Assay results: patent US9359297B2, “Spirolactam derivatives and uses of same” (H. Lundbeck A/S, priority 2009, dated 2016)

The molecules below were run against T1, human metabotropic glutamate receptor 5 (hmGluR5) (Homo sapiens, UniProt P41594) (assay: Calcium mobilization (FLIPR) assay for negative allosteric modulation, EC80 glutamate, hmGluR5 in HEK 293). Details: HEK293; hmGluR5, inhibition of EC80 glutamate response; read-out: FLIPR maximum inhibition.
T1 construct: expressed in transfected cells
T1 sequence (P41594 21-1212): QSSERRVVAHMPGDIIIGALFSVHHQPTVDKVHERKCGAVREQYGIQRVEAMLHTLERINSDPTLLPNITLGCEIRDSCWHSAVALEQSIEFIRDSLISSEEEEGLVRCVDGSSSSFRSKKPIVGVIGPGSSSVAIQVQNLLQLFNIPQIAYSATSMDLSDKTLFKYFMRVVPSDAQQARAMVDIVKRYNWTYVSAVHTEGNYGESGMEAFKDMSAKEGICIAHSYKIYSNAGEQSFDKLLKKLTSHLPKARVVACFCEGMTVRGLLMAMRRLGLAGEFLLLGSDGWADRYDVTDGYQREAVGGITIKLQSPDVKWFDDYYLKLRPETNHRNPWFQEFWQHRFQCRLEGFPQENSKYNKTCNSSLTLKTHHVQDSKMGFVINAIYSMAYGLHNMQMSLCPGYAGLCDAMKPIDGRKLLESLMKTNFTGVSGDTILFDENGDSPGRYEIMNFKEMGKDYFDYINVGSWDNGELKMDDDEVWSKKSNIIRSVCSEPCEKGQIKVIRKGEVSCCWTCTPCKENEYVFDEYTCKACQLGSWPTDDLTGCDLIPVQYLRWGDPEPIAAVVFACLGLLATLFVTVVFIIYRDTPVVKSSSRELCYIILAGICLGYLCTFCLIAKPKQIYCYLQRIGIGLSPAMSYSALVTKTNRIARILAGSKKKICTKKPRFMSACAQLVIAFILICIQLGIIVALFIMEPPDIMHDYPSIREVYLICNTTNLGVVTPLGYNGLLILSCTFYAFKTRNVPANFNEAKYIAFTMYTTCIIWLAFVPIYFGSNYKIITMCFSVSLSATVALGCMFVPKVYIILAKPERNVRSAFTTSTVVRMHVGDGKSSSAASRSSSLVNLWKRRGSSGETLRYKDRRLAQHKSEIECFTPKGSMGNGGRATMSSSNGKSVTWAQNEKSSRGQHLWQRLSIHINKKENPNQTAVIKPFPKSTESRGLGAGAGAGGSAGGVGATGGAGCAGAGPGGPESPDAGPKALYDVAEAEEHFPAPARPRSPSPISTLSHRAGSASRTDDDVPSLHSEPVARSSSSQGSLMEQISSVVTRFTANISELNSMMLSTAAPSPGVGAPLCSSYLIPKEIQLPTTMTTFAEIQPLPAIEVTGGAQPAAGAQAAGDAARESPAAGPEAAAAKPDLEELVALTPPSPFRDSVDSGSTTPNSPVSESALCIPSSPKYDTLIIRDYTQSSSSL
Format: cell-based
Description: The cDNA for rat metabotropic glutamate receptor 5 (rmGluR5) and the cDNA for human metabotropic glutamate receptor 5 (hmGluR5) were generous gifts from S. Nakanishi (Kyoto University, Kyoto, Japan). The rmGluR5 or hmGluR5 was stably expressed in a HEK 293 cell line and grown in Dulbecco's Modified Eagle Medium (DMEM) (Invitrogen, Carlsbad, Calif.) with supplements (10% bovine calf serum, 4 mM glutamine, 100 units/mL penicillin, 100 μg/mL streptomycin and 0.75 mM G1418) at 37° C., 5% CO2. Twenty-four hours prior to assay, cells were seeded into 384-well black wall microtiter plates coated with poly-D-lysine. Just prior to assay, media was aspirated and cells dye-loaded (25 μL/well) with 3 μM Fluo-4/0.01% pluronic acid in assay buffer (Hank's Balanced Saline Solution (HBSS)): 150 mM NaCl, 5 mM KCl, 1 mM CaCl2, 1 mM MgCl2, plus 20 mM N-2-Hydroxyethylpiperazine-N′-2-ethanesulfonic acid (HEPES), pH 7.4, 0.1% bovine serum albumin (BSA) and 2.5 mM probenicid) for 1 hour in 5% CO2 at 37° C. After excess dye was discarded, cells were washed in assay buffer and layered with a final volume equal to 30 μL/well. Basal fluorescence is monitored in a fluorometric imaging plate reader (FLIPR) (Molecular Devices, Sunnyvale, Calif.) with an excitation wavelength of 488 nm and an emission range of 500 to 560 nm. Laser excitation energy was adjusted so that basal fluorescence readings were approximately 10,000 relative fluorescent units. Cells were stimulated with an EC20 or an EC80 concentration of glutamate in the presence of a compound to be tested, both diluted in assay buffer, and relative fluorescent units were measured at defined intervals (exposure=0.6 sec) over a 3 min period at room temperature. Basal readings derived from negative controls were subtracted from all samples. Maximum change in fluorescence was calculated for each well. Concentration-response curves derived from the maximum change in fluorescence were analyzed by nonlinear regression (Hill equation). A negative modulator can be identified from these concentration-response curves if a compound produces a concentration dependent inhibition of the EC80 glutamate response.

Emax, 47 to 93%:
CCCCC(=O)N[C@@H]1CCC[C@@]2(CCN(c3cc(F)cc(F)c3)C2=O)C1 (relative stereo) [Example 145, cis-Pentanoic acid [2-(3,5-difluoro-phenyl)-1-oxo-2-aza-spiro[4.5]dec-7-yl]-amide]
Cc1cccc(C(=O)N[C@H]2CC(F)(F)C[C@]3(CCN(c4ccc(F)cn4)C3=O)C2)n1 (single isomer, unassigned) [Example 127]
Cc1nccc(N2CC[C@@]3(CCC[C@@H](NC(=O)c4cccc(Cl)c4)C3)C2=O)n1 [Example 148, 3-Chloro-N-[(5R,7R)-2-(2-methyl-pyrimidin-4-yl)-1-oxo-2-aza-spiro[4.5]dec-7-yl]-benzamide]
Cc1nccc(C(=O)N[C@@H]2CC(=O)C[C@@]3(CCN(c4cc(F)cc(F)c4)C3=O)C2)n1 (relative stereo) [Example 115, cis-2-Methyl-pyrimidine-4-carboxylic acid [2-(3,5-difluoro-phenyl)-1,9-dioxo-2-aza-spiro[4.5]dec-7-yl]-amide]
CN(C)c1cccc(N2CC[C@]3(CCC[C@H](NC(=O)c4cccc(F)c4)C3)C2=O)c1 [Example 132, Cis-N-[(5S,7S)-2-(3-Dimethylamino-phenyl)-1-oxo-2-aza-spiro[4.5]dec-7-yl]-3-fluoro-benzamide]
N#Cc1cc(F)cc(N2CC[C@@]3(CCC[C@@H](NC(=O)c4cccc(F)c4)C3)C2=O)c1 (relative stereo) [Example 142, cis-N-[2-(3-Cyano-5-fluoro-phenyl)-1-oxo-2-aza-spiro[4.5]dec-7-yl]-3-fluoro-benzamide]
O=C(N[C@@H]1CC(F)(F)C[C@@]2(CCN(c3ccc(F)cc3)C2=O)C1)c1ccccn1 (relative stereo) [Example 106, cis-Pyridine-2-carboxylic acid [9,9-difluoro-2-(4-fluoro-phenyl)-1-oxo-2-aza-spiro[4.5]dec-7-yl]-amide]
Cc1nc(C(=O)N[C@@H]2CCC[C@@]3(CCN(c4cc(F)cc(F)c4)C3=O)C2)cs1 (relative stereo) [Example 144, cis-2-Methyl-thiazole-4-carboxylic acid [2-(3,5-difluoro-phenyl)-1-oxo-2-aza-spiro[4.5]dec-7-yl]-amide]
COc1cccc(N2CC[C@]3(CCC[C@H](NC(=O)c4cccc(F)c4)C3)C2=O)c1 (relative stereo) [Example 130, cis-3-Fluoro--N-[-2-(3-methoxy-phenyl)-1-oxo-2-aza-spiro[4.5]dec-7-yl]-benzamide]
COc1cc(F)cc(N2CC[C@]3(CCC[C@H](NC(=O)c4cccc(F)c4)C3)C2=O)c1 (relative stereo) [Example 135, cis-3-Fluoro-N-[2-(3-fluoro-5-methoxy-phenyl)-1-oxo-2-aza-spiro[4.5]dec-7-yl]-benzamide]
O=C(N[C@@H]1CC(F)(F)C[C@]2(CCN(c3cccc(F)c3)C2=O)C1)c1ccccn1 (single isomer, unassigned) [Example 102]
Cn1ccc(N2CCC3(CCCC(NC(=O)c4cccc(F)c4)C3)C2=O)n1 (stereo not shown) [Example 158, 3-Fluoro-N-[2-(1-methyl-1H-pyrazol-3-yl)-1-oxo-2-aza-spiro[4.5]dec-7-yl]-benzamide]
O=C(N[C@H]1CCC[C@]2(CCN(c3nccs3)C2=O)C1)c1cccc(F)c1 (relative stereo) [Example 139, cis-3-Fluoro-N-(1-oxo-2-thiazol-2-yl-2-aza-spiro[4.5]dec-7-yl)-benzamide]
CCCC(=O)N[C@@H]1CCC[C@@]2(CCN(c3cc(F)cc(F)c3)C2=O)C1 (relative stereo) [Example 146, cis-N-[2-(3,5-Difluoro-phenyl)-1-oxo-2-aza-spiro[4.5]dec-7-yl]-butyramide]
Cc1nccc(C(=O)N[C@@H]2C[C@@](C)(O)C[C@@]3(CCN(c4cc(F)cc(F)c4)C3=O)C2)n1 (single isomer, unassigned) [Example 118, trans-2-Methyl-pyrimidine-4-carboxylic acid [2-(3,5-difluoro-phenyl)-9-hydroxy-9-methyl-1-oxo-2-aza-spiro[4.5]dec-7-yl]-amide]
Cc1nccc(C(=O)N[C@@H]2C[C@](C)(O)C[C@@]3(CCN(c4cc(F)cc(F)c4)C3=O)C2)n1 (single isomer, unassigned) [Example 119, cis-2-Methyl-pyrimidine-4-carboxylic acid [2-(3,5-difluoro-phenyl)-9-hydroxy-9-methyl-1-oxo-2-aza-spiro[4.5]dec-7-yl]-amide]
COc1ccc(N2CC[C@]3(CCC[C@H](NC(=O)c4cccc(F)c4)C3)C2=O)cc1 (relative stereo) [Example 133]

Emax, 73 to 95%:
Cc1cccc(C(=O)N[C@H]2CCC[C@]3(CCN(c4ccnc(C)n4)C3=O)C2)c1 (racemic) [Example 84, cis-3-Methyl-N-[2-(2-methyl-pyrimidin-4-yl)-1-oxo-2-aza-spiro [4.5]dec-7-yl]-benzamide]
Cc1cccc(C(=O)N[C@H]2CCC[C@]3(CCN(Cc4ccccc4)C3=O)C2)n1 (relative stereo) [Example 83, cis-6-methyl-pyridine-2-carboxylic acid (2-benzyl-1-oxo-2-aza-spiro[4.5]dec-7-yl)-amide]
Cc1cccc(C(=O)N[C@@H]2CCC[C@@]3(CCN(c4ccc(F)cn4)C3=O)C2)n1 [Example 73, 6-Methyl-pyridine-2-carboxylic acid [(5R,7R)-2-(5-fluoro-pyridin-2-yl)-1-oxo-2-aza-spiro[4.5]dec-7-yl]-amide]
Cc1cccc(C(=O)N[C@@H]2CCC[C@@]3(CCN(c4cc(F)cc(F)c4)C3=O)C2)n1 (single isomer, unassigned) [Example 67]
O=C(N[C@H]1CCC[C@]2(CCN(c3cccc(F)c3)C2=O)C1)c1ccc(F)cn1 (relative stereo) [Example 68, cis-5-Fluoro-pyridine-2-carboxylic acid [2-(3-fluoro-phenyl)-1-oxo-2-aza-spiro [4.5]dec-7-yl]-amide]
O=C(N[C@H]1CCC[C@]2(CCN(c3cccc(F)c3)C2=O)C1)c1ccncn1 (relative stereo) [Example 70, cis-Pyrimidine-4-carboxylic acid [2-(3-fluoro-phenyl)-1-oxo-2-aza-spiro [4.5]dec-7-yl]-amide]
Cc1cccc(C(=O)N[C@H]2CCC[C@]3(CCN(c4cncc(F)c4)C3=O)C2)n1 (relative stereo) [Example 64, cis-6-Methyl-pyridine-2-carboxylic acid [2-(5-fluoro-pyridin-3-yl)-1-oxo-2-aza-spiro[4.5]dec-7-yl]-amide]
O=C(N[C@H]1CCC[C@]2(CCN(c3cccc(F)c3)C2=O)C1)c1ccncc1 (relative stereo) [Example 77, cis-N-[2-(3-Fluoro-phenyl)-1-oxo-2-aza-spiro[4.5]dec-7-yl]-isonicotinamide]
Cc1cc(C(=O)N[C@H]2CCC[C@]3(CCN(c4cccc(F)c4)C3=O)C2)ccn1 (racemic) [Example 78, cis-N-[2-(3-Fluoro-phenyl)-1-oxo-2-aza-spiro[4.5]dec-7-yl]-2-methyl-isonicotinamide]
COc1cccc(N2CC[C@]3(CCC[C@H](NC(=O)c4cccc(C)n4)C3)C2=O)c1 (relative stereo) [Example 72, cis-6-Methyl-pyridine-2-carboxylic acid [2-(3-methoxy-phenyl)-1-oxo-2-aza-spiro[4.5]dec-7-yl]-amide]
Cc1cncc(C(=O)N[C@H]2CCC[C@]3(CCN(c4cc(-c5ccc(F)cc5)ncn4)C3=O)C2)n1 (relative stereo) [Example 86, cis-6-Methyl-pyrazine-2-carboxylic acid {2-[6-(4-fluoro-phenyl)-pyrimidin-4-yl]-1-oxo-2-aza-spiro [4.5]dec-7-yl}-amide]
O=C(N[C@H]1CCC[C@]2(CCN(c3cccc(F)c3)C2=O)C1)c1cccc(CO)n1 (relative stereo) [Example 93, cis-6-Hydroxymethyl-pyridine-2-carboxylic acid [2-(3-fluoro-phenyl)-1-oxo-2-aza-spiro[4.5]dec-7-yl]-amide]
Cc1nccc(N2CC[C@]3(CCC[C@H](NC(=O)c4ccc(F)cc4)C3)C2=O)n1 (relative stereo) [Example 89, cis-4-Fluoro-N-[2-(2-methyl-pyrimidin-4-yl)-1-oxo-2-aza-spiro [4.5]dec-7-yl]-benzamide]
Cc1nccc(N2CC[C@]3(CCC[C@H](NC(=O)c4cc(F)cc(F)c4)C3)C2=O)n1 (relative stereo) [Example 85, cis-3,5-Difluoro-N-[2-(2-methyl-pyrimidin-4-yl)-1-oxo-2-aza-spiro [4.5]dec-7-yl]-benzamide]
